# Measured values published in patent publication US8921426B2, “Cationic bis-urea compounds as effective antimicrobial agents” (International Business Machines Corporation, priority 2012, dated 2014).
# Entries after “also recorded” stand apart in the source; their conditions may differ. Like-named read-outs stand apart in the source and are kept apart here.
# Assays:
# C. albicans = test: Killing efficiency, spread plate method, C. albicans; assay type: cell-based, Candida albicans; settings: for killing of C. albicans cells: 24 hour treatment
# Procedure: (§1) Antimicrobial activities of cationic compounds were also tested through a spread plate method. B. subtilis and C. albicans were treated at half MIC, MIC and 2×MIC concentrations of cationic compounds. At predetermined time (18 hours for B. subtilis and 24 hours for C. albicans and C. neoformans), microbial suspensions were withdrawn, diluted sequentially, and then plated on 1.5% lysogeny broth (LB) agar plates. The plates were incubated for 24 hours at 37° C. (48 hours at room temperature for C. albicans). Microbial colonies were formed and counted. The results are expressed as % kill=(cell count of control−survivor count of samples)/cell count of control×100. The experiments were performed in triplicate and were repeated three times.
# rat red blood cells = test: Hemolysis of rat red blood cells; assay type: cell-based; settings: one hour at 37° C.
# Procedure: Fresh rat blood cells were washed with PBS three times. 100 microliters of red blood cell suspension in PBS (4% in volume) was introduced to each well of a 96 well-plate and 100 microliters of cationic compound solution was then added to the well. PBS and TRITON X-100 (0.2%) were used as control. The plates were incubated for one hour at 37° C. The 96 well plates were centrifuged at 4000 rpm for 5 minutes. Aliquots (100 microliters) of the supernatant were transferred to a new 96 well plate. Hemoglobin release was measured at 576 nm using a microplate reader (TECAN). The red blood cells in PBS were used as a negative control. Absorbance of wells with red cells lysed with 0.2% TRITON X-100 was taken as 100% hemolysis. Percentage of hemolysis was calculated using the following formula (OD576nm=optical density at 576 nm): Hemolysis (%)=[(OD576nm of the sample−OD576nm of PBS)/(OD576nm of 0.2% TRITON X-100−OD576nm of PBS)×100. The data were expressed as mean and standard deviation of four replicates and the tests were repeated three times.
# B. subtilis = test: Killing efficiency, spread plate method, B. subtilis; assay type: cell-based, Bacillus subtilis; settings: 18 hour treatment
# Procedure: as §1
# [1] = Critical micelle concentration (CMC) by intensity of scattered light; assay type: physicochemical; settings: cationic bis-urea compounds; stock diluted using DI water
# Procedure: The intensity of scattered light (in kilo counts per second) was recorded as a function of cationic compounds concentration ranging from 0.0 to 250.0 mg/L. A stock polymer solution was prepared with a concentration of 1000.0 mg/L, and diluted using DI water to various concentrations. The intensity of scattered light was plotted against polymer concentration. The CMC value was taken from the intersection of the tangent to the curve at the inflection with the horizontal tangent through the points at low concentrations.
# [2] = test system: Candida albicans (C. albicans) (ATCC No. 10231); test: MIC, broth microdilution, C. albicans; assay type: cell-based; settings: for MIC: Candida albicans, read-out: MIC C. albicans
# Procedure: (§2) The minimum inhibitory concentration (MIC) of each of the cationic compounds was measured using a broth microdilution method. The cationic compound were dissolved in DI water at a concentration of 2500 mg/L. The samples were further diluted to 31.25, 62.5, 125, 250.0, 500.0 and 1000.0 mg/L using TSB or YMB. The B. subtilis cells were grown in TSB overnight in an incubator at 37° C. The C. albicans cells were grown in YMB at room temperature. The optical density of the bacterial solution was adjusted to OD600 nm=0.07 to 0.08 by the addition of TSB or YMB. This bacterial solution was further diluted 1000 times. Cationic compound solution (100 microliters) was transferred to each well of 96 well plates (NUNC), followed by the addition of 100 microliters of the bacterial solution. TSB or YMB was used as control. B. subtilis cells were incubated at 37° C. overnight in TSB. C. albicans cells were cultured in YMB at room temperature. C. neoformans were inoculated in MHB broth and grew overnight at 37° C. with shaking at 250 rpm. The optical density readings of bacterial solutions were monitored by measuring OD600nm in predetermined times (0 hours and 18 hours for B. subtilis while 0 hours and 24 hours for C. albicans). The assay was performed in four replicates for each sample and the experiments were repeated at least three times.
# [3] = test system: Bacillus subtilis (B. subtilis) (ATCC No. 23857); test: MIC, broth microdilution, B. subtilis; assay type: cell-based; settings: ATCC23857, TSB, 37° C., 18 hours
# Procedure: as §2
# [4] = test system: primary human dermal fibroblasts; test: MTT cytotoxicity assay; assay type: cell-based; settings: 24 hours at 37° C.
# Procedure: The cytotoxicity tests of the cationic bis-urea compounds were performed in primary human fibroblasts using MTT assay. The cells were cultured in DMEM supplemented with 10% FBS, 5% penicillin, 2 mM L-glutamine (Sigma) and incubated at 37° C., 5% CO2. The cells were seeded onto 96-well plates at a density of 10,000 cells per well and incubated for one day. Cationic compounds were diluted with the growth medium to give final concentrations of 31.25, 62.5, 125, 250.0, 500.0, 1000.0 and 2500.0 mg/L. The media were replaced with 100 microliters of the pre-prepared samples. The plates were then returned to the incubator and maintained in 5% CO2 at 37° C. for 24 hours. Fresh growth media (100 microliters) containing 10% MTT solution (5 mg/mL) were used to replace the mixture in each well after 24 hours. The plates were then returned to the incubator and maintained in 5% CO2 at 37° C. for a further 4 hours. The growth medium and excess MTT in each well were then removed. DMSO (150 microliters) was then added to each well to dissolve the internalized purple formazan crystals. An aliquot of 100 microliters was taken from each well and transferred to a fresh 96-well plate. Each sample was tested in eight replicates per plate. The plates were then assayed at 550 nm and 690 nm. The absorbance readings of the formazan crystals were taken to be the absorbance at 550 nm minus the absorbance at 690 nm. The results were expressed as a percentage of the absorbance of the blank control.
# [5] = Zeta potential (Zetasizer); assay type: physicochemical; settings: cationic bis-urea compounds, 1000 mg/L; method names PBS pH 7.4 and DI water, table does not say which
# Procedure: The zeta potential of the cationic compounds in phosphate-buffered saline (PBS, pH 7.4) and deionized (DI) water was measured by Zetasizer 3000 HAS (Malvern Instrument Ltd., Malvern, UK) equipped with a He—Ne laser beam at […] (scattering angle: 90°). The concentration of cationic compounds was 1000 mg/L. Each measurement was repeated 5 times. An average value was obtained from the five measurements.
# C. neoformans cells = test: TEM of C. neoformans cells before and after treatment; assay type: cell-based, Cryptococcus neoformans; settings: 8 hours, FIG. 7B
# Procedure: The morphology of the C. neoformans before and after treatment with cationic compound CBU2 was observed under a JEM-1230 TEM (JEOL, Japan) using an acceleration voltage of 80 keV. The C. neoformans (1.5 mL) was incubated with 0.5 mL of CBU2 solution for 8 hours. The solution was then centrifuged at 4000 rpm for 10 minutes, and the supernatant removed. The […] was washed with PBS twice and then fixed in formalin solution containing 2.5% glutaraldehyde overnight. The sample was then washed by PBS three times (15 minutes each) and then post fixed with 1% OsO4 in phosphate buffer (pH 7.0) for one hour. The fixed samples were washed in phosphate buffer three times (15 minutes each), followed by dehydration in a graded ethanol series. The samples were incubated with the mixtures of acetone and Spun resin (1:1 in volume) for one hour at room temperature, and then transferred to 1:3 mixture of acetone and Spun resin for 3 hours, and to Spun resin overnight. Ultrathin sections (70-90 nm) were cut using a Reichert-Jung Ultracut E ultramicrotome, and post-stained with uranyl acetate and lead citrate for 15 minutes each prior to TEM observations. Spun resin can be prepared from a kit by combining 3,4 epoxy cyclohexyl methyl 3,4 epoxy cyclohexyl carboxylate (ERL-4221 resin from Polysciences) (10.0 g), nonenylsuccinic anhydride (26.0 g), and dimethylaminoethanol (0.4 g).
# [6] = test system: Cryptococcus neoformans (C. neoformans); test: MIC, broth microdilution, C. neoformans; assay type: cell-based; settings: for MIC: Cryptococcus neoformans, read-out: MIC C. neoformans
# Procedure: as §2
# [7] = ATCC10231, YMB, room temperature, 24 hours
# [8] = 24 hours, 1.0 and 2.0 times the MIC (FIG. 4A)
# [9] = up to a concentration of 1000 mg/L
Structure (SMILES),killing of C. albicans cells (C. albicans; about 500 mg/L) [%],HC50 (concentration that induces 50% hemolysis of rat red blood cells) (rat red blood cells),killing of B. subtilis cells (B. subtilis; about 500 mg/L) [%],CMC [1] [mg/L],"MIC [2, 7] [µg/mL]",MIC [3] [µg/mL],cell viability of primary human fibroblasts ([4]; up to a concentration of 250 mg/L),Zeta Potential [5] [mV],cell membrane morphology after treatment (TEM) (C. neoformans cells),"killing efficiency against C. albicans (C. albicans; 31.2 mg/L, by 1 hour of incubation (FIG. 5)) [%]",killing efficiency against C. albicans (C. albicans; [8]) [%],killing of C. albicans cells (C. albicans; about 31.2 mg/L) [%],killing of B. subtilis cells (B. subtilis; about 125 mg/L) [%],activity against C. albicans (in words) [2],activity against C. neoformans (in words) [6],"MIC ([6]; MHB broth, 37° C.) [µg/mL]",killing of C. albicans cells (C. albicans; about 125 mg/L) [%],"cell viability of primary human fibroblasts [4, 9]","MIC ([2]; ATCC10231, 24 h) [µg/mL]",MIC [6] [µg/mL]
C[N+](C)(C)CCCNC(=O)Nc1ccc(CNC(=O)c2ccc(C(=O)NCc3ccc(NC(=O)NCCC[N+](C)(C)C)cc3)cc2)cc1.[I-].[I-] [CBU1],99,>>2500 mg/L,100,170.0,500,500,About 60%,47.0,,,,,,,,,,,,
NCCCCNC(=O)Nc1ccc(CNC(=O)c2ccc(C(=O)NCc3ccc(NC(=O)NCCCCN)cc3)cc2)cc1 [CBU2],,>>1000 mg/L,,20.0,31.2,125,,36.7,ruptured and show loss of intracellular material,100,100,100,100,highly active; also recorded: more active,highly active,62.5,,,,
C[N+](C)(C)CCCNC(=O)Nc1ccc(NC(=O)c2ccc(C(=O)Nc3ccc(NC(=O)NCCC[N+](C)(C)C)cc3)cc2)cc1.[I-].[I-] [CBU3],,>>2500 mg/L,,110.0,250,125,,32.8,,,100,,,,,,99.9,More than 80%,,
NCCNC(=O)Nc1ccc(CNC(=O)c2ccc(C(=O)NCc3ccc(NC(=O)NCCN)cc3)cc2)cc1 [CBU5],,>>1000 mg/L,,100.00,,,,32.2,,,,,,highly active; also recorded: more active,highly active,,,About 80%,62.5,125
NCCCCCCNC(=O)Nc1ccc(CNC(=O)c2ccc(C(=O)NCc3ccc(NC(=O)NCCCCCCN)cc3)cc2)cc1 [CBU6],,>>1000 mg/L,,15.0,,,,35.3,,,,,,highly active; also recorded: more active,highly active,,,About 80%,31.2,62.5
NCc1ccc(CNC(=O)Nc2ccc(CNC(=O)c3ccc(C(=O)NCc4ccc(NC(=O)NCc5ccc(CN)cc5)cc4)cc3)cc2)cc1 [CBU7],,>>1000 mg/L,,12.0,,,,45.1,,,,,,highly active; also recorded: more active,highly active,,,,31.2,31.2
